Source: patent US20160287626A1, “METHODS OF TREATING AND PREVENTING RADIATION DAMAGE” (CANTEX PHARMACEUTICALS, INC., priority 2013, published 2016)
“Also recorded” adds a separate entry of the source.

Key:
anti-coagulant activity = conditions: cited from earlier work
[1] = tested on: CD2F1 mice irradiated with 9.25 Gy; test: Survival of CD2F1 mice after 9.25 Gy total body irradiation; assay type: in vivo; conditions: 9.25 Gy TBI
Method: FIG. 1 provides a graph illustrating the survival of CD2F1 mice after total body irradiation: control group with no post-irradiation treatment (o); 0.1 mL PBS administered subcutaneously at 4 h post-irradiation (□); 0.1 mL PBS administered subcutaneously at 24, 36, and 48 h post-irradiation (Δ); 0.1 mL 25 mg/kg ODSH administered subcutaneously at 4, 16, and 28 h post-irradiation (▪); and 0.1 mL 25 mg/kg ODSH administered subcutaneously at 24, 36, and 48 h post-irradiation (▴).
CD2F1 male mice (Batch #7586 DOB Dec. 23, 2012) were weighed and animals outside ±20% of the mean weight were excluded. Mice that were within ±20% of the mean weight were randomized into groups of eight animals per box. There were 24 animals per treatment group. The animals received radiation at a dose rate of 0.6 Gy/min in the AFRRI Cobalt 60 gamma radiation facility. Animals were irradiated in Lucite boxes (8 animals/box) and arranged in an array (dosimetry Feb. 25, 2010) using plastic racks. Animals were restrained for no more than 60 min and returned to cages at the end of the irradiation period.
Post-TBI, animals were untreated (naïve) or treated subcutaneously with either phosphate buffered solution (PBS) or ODSH (2-O, 3-O desulfated heparin). […] The animals were monitored daily (twice a day when necessary) for 30 days and euthanized at the completion of the observational period.

Substance | anti-coagulant activity in the USP anti-coagulant assay (anti-coagulant activity) | survival over the post-irradiation period compared with naïve and PBS-treated mice ([1]; 25 mg/kg s.c. post-irradiation (24, 36 and 48 h), 30-day observation, 25 mg/kg) | mice still alive at day 10 post-irradiation ([1]; 0.1 mL 25 mg/kg s.c. at 24, 36 and 48 h post-irradiation, day 10) [%] | anti-coagulant activity in the USP anti-coagulant assay (example value) (anti-coagulant activity; e.g. value) [U]
Unfractionated heparin [reference compound] | 165-190 U/mg |  |  | 
2-O, 3-O desulfated heparin [ODSH] | less than 9 U/mg | greatest percentage survival; also recorded: improves survival | 95 | 7±0.3
